Data published in patent US5912251A, “Metabolically inert anti-inflammatory and anti-tumor antifolates” (priority 1998, dated 1999).

Key:
allergic rabbits = test: allergen-induced asthmatic responses and bronchial hyper-responsiveness (BHR) in allergic rabbits; type: in vivo, New Zealand White rabbit; settings: for Asthmatic Response, Early: percent inhibition from control / Asthmatic Response, Late: percent inhibition from control / BHR (bronchial hyper-responsiveness): percent inhibition from control: aerosol 5 mg/ml; for Asthmatic Response, Early: percent inhibition from control: early-phase area under the curve; for Asthmatic Response, Late: percent inhibition from control: late-phase area under the curve; for BHR (bronchial hyper-responsiveness): percent inhibition from control: repeat histamine challenge 24 hour later
Description: Experimental Model: Induction of Asthma in Rabbits. New Zealand White Pasturella-free rabbit litter mates were bred and immunized ip within 24 hour of birth with 312 AU dust mite allergen extract [Berkeley Biological, Berkeley, Calif.] in 10% kaolin once every week for one month, then biweekly until the age of 4 months. Mustafa and co-workers used this rabbit model as described in American Journal of Physiology [266, 271-277, 1994]. These allergic animals preferentially produce allergen-specific IgE antibody and typically respond to aeroallergen challenge with an early and late phase asthmatic response and show increased bronchial hyper responsiveness (BHR).
Allergen, Theophylline and Antifolate Challenges: These experiments were carried out as described by Mustafa and co-workers in the Journal, Agents and Actions in 1992 [37, 168-170, 1992 ]. Briefly, allergic rabbits were challenged with ragweed allergen aerosol (10,000 PNU/mL) as described until there was an approximate 50% reduction in dynamic compliance (Cdyn). Pulmonary function was measured at 15 minutes intervals for 6 hours. The rabbit was challenged with indicated antifolates [5 mg/mL, aerosolized for 4 minutes ] followed immediately by the same total dose of allergen. Pulmonary function measurements as described by Mustafa and co-workers in the cited reference were carried out for 6 hours.
To assess the effect of antifolates on allergen-induced changes in the airways, the area under the curve for early and late -phase response was digitalized by computer-assisted plenometry for each rabbit during the six hour time period.

[1] = test system: carboxypeptidase derived from Pseudomonad sp
Description: (§1) As part of a continuing program aimed at the development of less toxic and more specific antifolate drugs for the treatment of human cancers, the pteridine ring of the experimental anticancer drug methylene-10-deazaaminopterin [MDAM] was replaced with a quinazoline ring.

K562 = test: Human Disease Oriented in vitro Antitumor Screen (NCI), total growth inhibition, K562; type: cell-based; settings: Leukemia
Description: (§2) Compound 1 was evaluated for its anti-tumor activity using the Human Disease Oriented in vitro Antitumor Screen at the National Cancer Institute.

CCRF-CEM = test: Human Disease Oriented in vitro Antitumor Screen (NCI), total growth inhibition, CCRF-CEM; type: cell-based; settings: Leukemia
Description: as §2

SR = test: Human Disease Oriented in vitro Antitumor Screen (NCI), total growth inhibition, SR; type: cell-based; settings: Leukemia
Description: as §2

RPMI 8226 = test: Human Disease Oriented in vitro Antitumor Screen (NCI), total growth inhibition, RPMI 8226; type: cell-based; settings: Leukemia
Description: as §2

MOLT-4 = test: Human Disease Oriented in vitro Antitumor Screen (NCI), total growth inhibition, MOLT-4; type: cell-based; settings: Leukemia
Description: as §2

SF 539 = test: Human Disease Oriented in vitro Antitumor Screen (NCI), total growth inhibition, SF 539; type: cell-based; settings: CNS Cancer
Description: as §2

MCF7 = test: Human Disease Oriented in vitro Antitumor Screen (NCI), total growth inhibition, MCF7; type: cell-based; settings: Breast Cancer
Description: as §2

[2] = test system: leukemia cells that are resistant to MTX by virtue of defective polyglutamylation; test: growth inhibition of MTX-resistant leukemia cells with defective polyglutamylation vs wild type CCRF-CEM; type: cell-based; settings: defective polyglutamylation line compared to wild type MTX sensitive parental CCRF-CEM
Description: as §1

[3] = test system: selected human tumor cells; test: Human Disease Oriented in vitro Antitumor Screen (NCI), panel as a whole; type: cell-based
Description: Compound 1 was evaluated for its anti-tumor activity using the Human Disease Oriented in vitro Antitumor Screen at the National Cancer Institute. […] This unexpected finding may be due to the inability of 1 to undergo metabolic transformation.

[4] = target: T1, human dihydrofolate Reductase (Homo sapiens, UniProt P00374); test: inhibition of human dihydrofolate reductase; type: biochemical; settings: human enzyme; read-out: I50
T1 sequence (P00374 1-187): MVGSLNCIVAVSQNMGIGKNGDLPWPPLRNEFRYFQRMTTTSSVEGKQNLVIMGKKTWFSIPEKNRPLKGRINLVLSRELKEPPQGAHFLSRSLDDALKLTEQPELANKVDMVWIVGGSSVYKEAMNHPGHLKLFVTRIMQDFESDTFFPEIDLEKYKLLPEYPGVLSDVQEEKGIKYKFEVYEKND
Description: In order to unravel the mechanism of action of 1 and 1 e they were examined as inhibitors of human dihydrofolate Reductase.

[5] = test system: rabbit liver aldehyde oxidase; test: incubation with rabbit liver aldehyde oxidase (conversion to 7-hydroxy derivative); type: in vitro ADME
[6] = test system: human leukemia and human solid tumor cells; test: inhibitory activity against the growth of human cancer cells in culture; type: cell-based
[7] = test system: folylpolyglutamate synthetase; test: evaluation in vitro using folylpolyglutamate synthetase (polyglutamylation); type: in vitro ADME
MCF7-ADR-RES = test: Human Disease Oriented in vitro Antitumor Screen (NCI), total growth inhibition, MCF7-ADR-RES; type: cell-based; settings: Breast Cancer
Description: as §2

SMILES	Asthmatic Response, Early: percent inhibition from control (allergic rabbits)	Asthmatic Response, Late: percent inhibition from control (allergic rabbits)	BHR (bronchial hyper-responsiveness): percent inhibition from control (allergic rabbits)	removal of the 4-methyleneglutamate moiety by carboxypeptidase [1]	Log 10 TGI (K562)	Log 10 TGI (CCRF-CEM)	Log 10 TGI (SR)	Log 10 TGI (RPMI 8226)	Log 10 TGI (MOLT-4)	Log 10 TGI (SF 539)	also measured
Cn1c(=O)c2[nH]cnc2n(C)c1=O [Theophylline, theophylline]	45%	49%	39%	–	–	–	–	–	–	–	–
C=C(CC(NC(=O)c1ccc(N(C)Cc2ccc3nc(N)nc(N)c3c2)cc1)C(=O)O)C(=O)O (stereo not shown) [Compound 1d]	–	–	–	failed to remove the 4-methyleneglutamate moiety	–	–	–	–	–	–	–
CN(Cc1cnc2nc(N)nc(N)c2n1)c1ccc(C(=O)N[C@@H](CCC(=O)O)C(=O)O)cc1 [MTX, methotrexate, reference compound]	29%	37%	32%	–	-3.3	-3.77	-3.25	-3.66	-3.55	-3.66	–
C=C(CC(NC(=O)c1ccc(CCc2ccc3nc(N)nc(N)c3c2)cc1)C(=O)O)C(=O)O (stereo not shown) [Compound 1, 5,8,10-trideaza-4'-methyleneaminopterin]	52%	58%	47%	failed to remove the 4-methyleneglutamate moiety	< -8.00	< -8.00	< -8.00	-7.44	-7.4	-6.3	Log 10 TGI (MCF7): -6.32; collateral sensitivity: times more sensitive in inhibiting the growth of MTX-resistant leukemia cells [2]: 4-5 times; killing of cancer cells (in words) ([3]; NCI in vitro antitumor screen): able to kill cancer cells with remarkable potency; times more effective than MTX in this panel ([3]; total growth inhibition, NCI panel of Table 2): 1,000-10,000 times; IC50 [4]: 0.066 µM; conversion to 7-hydroxy derivative by aldehyde oxidase [5]: completely inert; inhibitory activity against the growth of human cancer cells relative to MTX or MDAM [6]: strikingly more active than either MTX or MDAM; killing of human leukemia and solid tumor cells in culture ([6]; therapeutically relevant concentrations): able to kill a large number of human luekemia and human solid tumor cells in culture at therapeutically relevant concentrations; anti-asthmatic activity (in words) (allergic rabbits; relative to MTX and theophylline): not only superior to MTX but also to the well known anti-asthmatic drug theophylline in both early and late asthmatic responses and bronchial hyper responsiveness (BHR); elaboration to polyglutamates [7]: not capable of elaboration to its polyglutamates; Log 10 TGI (MCF7-ADR-RES): -7.26
